Reference: BindingDB's records for doi:10.1021/jm9707232 (Sapienza University of Rome, 1998)

Target: Integrase (Human immunodeficiency virus 1, UniProt Q7ZJM1)
Test: Compound concentration required to reduce HIV-1 Integrase 3'-processing activity by 50%

Integrase, sequence (Q7ZJM1 whole entry): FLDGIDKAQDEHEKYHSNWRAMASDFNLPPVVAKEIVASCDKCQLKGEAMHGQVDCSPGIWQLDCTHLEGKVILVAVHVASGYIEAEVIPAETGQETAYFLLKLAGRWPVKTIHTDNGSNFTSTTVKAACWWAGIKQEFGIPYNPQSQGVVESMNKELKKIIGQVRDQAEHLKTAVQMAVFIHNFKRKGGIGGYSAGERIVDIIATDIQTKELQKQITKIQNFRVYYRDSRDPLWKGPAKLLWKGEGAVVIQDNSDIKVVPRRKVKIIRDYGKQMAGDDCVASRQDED

Structure (SMILES)	IC50 [µM]
COc1ccc(C=CC(=O)CC(=O)C=Cc2ccc(OC)c(OC)c2)cc1OC [(1E,4Z,6E)-1,7-bis(3,4-dimethoxyphenyl)-5-hydroxyhepta-1,4,6-trien-3-one]	> 100
O=C(C=Cc1ccccc1)CC(=O)C=Cc1ccccc1 [5-Hydroxy-1,7-diphenylhepta-1,4,6-trien-3-one]	> 100
